Reference: ChEMBL document CHEMBL1201862, “PubChem BioAssay data set” (2004)
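Each compound was tested at five concentrations against cells in 96-well plates for 48 hours. GI50: concentration for 50% inhibition of growth.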 Activity calls are given as the source filed them. No stated cut-off is given here; in the data, active = GI50 up to about 1.1 µM and inactive = higher.

Assays:
Experiment in all cases: NCI-60 cell line screen, 48 h
[1] = test system: 786-0
[2] = test system: A498
[3] = test system: A549
[4] = test system: ACHN
[5] = test system: CAKI-1
[6] = test system: CCRF-CEM
[7] = test system: COLO 205
[8] = test system: DLD-1
[9] = test system: DMS-114
[10] = test system: DMS-273
[11] = test system: EKVX
[12] = test system: HCC 2998
[13] = test system: HCT-15
[14] = test system: HL-60
[15] = test system: HOP-18
[16] = test system: HOP-62
[17] = test system: HT-29
[18] = test system: IGROV-1
[19] = test system: K562
[20] = test system: KM12
[21] = test system: LOX IMVI
[22] = test system: LXFL 529
[23] = test system: M14
[24] = test system: M19-MEL
[25] = test system: MOLT-4
[26] = test system: Malme-3M
[27] = test system: NCI-H226
[28] = test system: NCI-H23
[29] = test system: NCI-H522
[30] = test system: OVCAR-3
[31] = test system: OVCAR-4
[32] = test system: OVCAR-5
[33] = test system: OVCAR-8
[34] = test system: RPMI-8226
[35] = test system: RXF 393
[36] = test system: RXF 631
[37] = test system: SF-268
[38] = test system: SF-295
[39] = test system: SF-539
[40] = test system: SK-MEL-28
[41] = test system: SK-MEL-2
[42] = test system: SK-MEL-5
[43] = test system: SK-OV-3
[44] = test system: SN12C
[45] = test system: SNB-19
[46] = test system: SNB-75
[47] = test system: SNB-78
[48] = test system: SW-620
[49] = test system: TK-10
[50] = test system: U-251
[51] = test system: UACC-257
[52] = test system: UACC-62
[53] = test system: UO-31
[54] = test system: XF498
[55] = test system: HCT-116
[56] = test system: HOP-92
[57] = test system: KM-20L2
[58] = test system: NCI-H460
[59] = test system: SR

CN(C)/C(=N/C(=S)Nc1ccccc1)SCc1ccccc1
GI50 [1]: 56.1 µM (inactive)
GI50 [2]: 83.8 µM (inactive)
GI50 [3]: 32 µM (inactive)
GI50 [4]: 45 µM (inactive)
GI50 [5]: 24.2 µM (inactive)
GI50 [6]: 11.7 µM (inactive)
GI50 [7]: 14.9 µM (inactive)
GI50 [8]: 44.3 µM (inactive)
GI50 [9]: 9.93 µM (inactive)
GI50 [10]: 51.6 µM (inactive)
GI50 [11]: > 100 µM (inactive)
GI50 [12]: 36.4 µM (inactive)
GI50 [13]: 57.5 µM
GI50 [14]: 18.2 µM (inactive)
GI50 [15]: > 100 µM (inactive)
GI50 [16]: 71.6 µM (inactive)
GI50 [17]: 3.88 µM (inactive)
GI50 [18]: 74.3 µM (inactive)
GI50 [19]: 12.3 µM (inactive)
GI50 [20]: 7.23 µM (inactive)
GI50 [21]: 42 µM (inactive)
GI50 [22]: 2.38 µM (inactive)
GI50 [23]: 67.8 µM (inactive)
GI50 [24]: 14.7 µM (inactive)
GI50 [25]: 32.5 µM (inactive)
GI50 [26]: 40.2 µM (inactive)
GI50 [27]: 36.1 µM (inactive)
GI50 [28]: 40.9 µM (inactive)
GI50 [29]: 2.73 µM (inactive)
GI50 [30]: 56.8 µM (inactive)
GI50 [31]: 5.47 µM (inactive)
GI50 [32]: > 100 µM (inactive)
GI50 [33]: 56.4 µM (inactive)
GI50 [34]: 10.3 µM (inactive)
GI50 [35]: 27.7 µM (inactive)
GI50 [36]: 88.1 µM (inactive)
GI50 [37]: 48.3 µM (inactive)
GI50 [38]: 42.9 µM (inactive)
GI50 [39]: > 100 µM (inactive)
GI50 [40]: 42.2 µM (inactive)
GI50 [41]: 49.9 µM (inactive)
GI50 [42]: 3.14 µM (inactive)
GI50 [43]: > 100 µM (inactive)
GI50 [44]: 66.2 µM (inactive)
GI50 [45]: 40.3 µM (inactive)
GI50 [46]: 30.3 µM (inactive)
GI50 [47]: > 100 µM (inactive)
GI50 [48]: > 100 µM (inactive)
GI50 [49]: > 100 µM (inactive)
GI50 [50]: 49.2 µM (inactive)
GI50 [51]: 36.6 µM (inactive)
GI50 [52]: 6.17 µM (inactive)
GI50 [53]: 22.5 µM (inactive)
GI50 [54]: 24.4 µM (inactive)

COC1(OC)C2(Cl)C3=CCCC=C3C1(Cl)C(Cl)=C2Cl
GI50 [1]: 27.4 µM (inactive)
GI50 [3]: 27.2 µM (inactive)
GI50 [4]: 28 µM (inactive)
GI50 [5]: 18.9 µM (inactive)
GI50 [6]: 19.8 µM (inactive)
GI50 [7]: 18.6 µM (inactive)
GI50 [8]: 28.9 µM (inactive)
GI50 [9]: 18.1 µM (inactive)
GI50 [10]: 13.3 µM (inactive)
GI50 [11]: 16.1 µM (inactive)
GI50 [12]: 29.2 µM (inactive)
GI50 [55]: 17.1 µM (inactive)
GI50 [13]: 27.5 µM
GI50 [14]: 13.9 µM (inactive)
GI50 [16]: 26.3 µM (inactive)
GI50 [56]: 21.5 µM (inactive)
GI50 [17]: 20.6 µM (inactive)
GI50 [18]: 36.5 µM (inactive)
GI50 [19]: > 10 µM (inactive)
GI50 [57]: 23.2 µM (inactive)
GI50 [20]: 34.3 µM (inactive)
GI50 [21]: 15.3 µM (inactive)
GI50 [22]: 25.6 µM (inactive)
GI50 [23]: 13.2 µM (inactive)
GI50 [24]: 18.8 µM (inactive)
GI50 [25]: 18.4 µM (inactive)
GI50 [26]: 16.7 µM (inactive)
GI50 [27]: 45.7 µM (inactive)
GI50 [28]: 21.9 µM (inactive)
GI50 [58]: 26.5 µM (inactive)
GI50 [29]: 12.9 µM (inactive)
GI50 [30]: 17.4 µM (inactive)
GI50 [31]: 18.2 µM (inactive)
GI50 [32]: 23.7 µM (inactive)
GI50 [33]: 32.2 µM (inactive)
GI50 [34]: 12.1 µM (inactive)
GI50 [35]: 13.9 µM (inactive)
GI50 [36]: 13.2 µM (inactive)
GI50 [37]: 27.4 µM (inactive)
GI50 [38]: 25.1 µM (inactive)
GI50 [39]: 29 µM (inactive)
GI50 [40]: 30.2 µM (inactive)
GI50 [41]: 16.9 µM (inactive)
GI50 [42]: 14.3 µM (inactive)
GI50 [43]: 26 µM (inactive)
GI50 [44]: 28.7 µM (inactive)
GI50 [45]: 26.1 µM (inactive)
GI50 [46]: 23.3 µM (inactive)
GI50 [47]: 31.8 µM (inactive)
GI50 [59]: 18.1 µM (inactive)
GI50 [48]: 17.5 µM (inactive)
GI50 [49]: > 100 µM (inactive)
GI50 [50]: 30.3 µM (inactive)
GI50 [51]: 28.4 µM (inactive)
GI50 [52]: 25.5 µM (inactive)
GI50 [53]: 21.7 µM (inactive)
GI50 [54]: 19.2 µM (inactive)
